This experiment deals with SARS-CoV-2 3CLpro (Severe acute respiratory syndrome coronavirus 2, UniProt P0DTD1). Description: biochemical. The experiment is classed as biochemical. On the set-up: Replicate_1 / Replicate_2 / mean / mean (LOPAC_screen_w_protease): unit not given here. As to conditions: for inhibition at 5 µM: 4 h; for mean (LOPAC screen with protease) / Replicate_1 (LOPAC screen with protease) / Replicate_2 (LOPAC screen with protease): primary screen at 5 µM.

[1] abbreviates: LOPAC1280 primary screen with protease, 5 µM compound, replicate 1, read-out: Replicate_1 (LOPAC_screen_w_protease).
The mark [2] stands for this setting: LOPAC1280 primary screen with protease, 5 µM compound, replicate 2, read-out: Replicate_2 (LOPAC_screen_w_protease).
The mark [3] stands for this setting: LOPAC1280 primary screen with protease, 5 µM compound, mean of two replicates.
The mark [4] stands for this setting: sheet LOPAC_screen_w_protease, primary screen of LOPAC1280 at 5 µM with protease, mean of the two replicates.
[5] abbreviates: sheet LOPAC_screen_w_protease, primary screen of LOPAC1280 at 5 µM with protease, replicate 1.
[6] abbreviates: sheet LOPAC_screen_w_protease, primary screen of LOPAC1280 at 5 µM with protease, replicate 2.
The mark [7] stands for this setting: LOPAC1280 primary screen with protease, 5 µM compound, mean of the two replicates.
The mark [8] stands for this setting: sheet LOPAC_screen_w_protease, primary screen with protease, mean of two replicates.
Setting [9] is: sheet LOPAC_screen_w_protease, primary screen with protease, replicate 1.
The mark [10] stands for this setting: sheet LOPAC_screen_w_protease, primary screen with protease, replicate 2.
Where [11] appears, read: sheet LOPAC_screen_w_protease, LOPAC1280 at 5 µM, mean of two replicates.
Setting [12] is: sheet LOPAC_screen_w_protease, LOPAC1280 at 5 µM, replicate 1.
The mark [13] stands for this setting: sheet LOPAC_screen_w_protease, LOPAC1280 at 5 µM, replicate 2.
Setting [14] is: LOPAC1280 primary screen with protease, 5 µM compound, replicate 1.
Setting [15] is: LOPAC1280 primary screen with protease, 5 µM compound, replicate 2.
Setting [16] is: sheet LOPAC_screen_w_protease, mean of two replicates.
Setting [17] is: sheet LOPAC_screen_w_protease, replicate 1.
[18] abbreviates: sheet LOPAC_screen_w_protease, replicate 2.
[19] abbreviates: sheet LOPAC_screen_w_protease, LOPAC1280 primary screen with protease, 5 µM compound, mean of the two replicates, read-out: mean.
[20] abbreviates: sheet LOPAC_screen_w_protease, LOPAC1280 primary screen with protease, 5 µM compound, replicate 1, read-out: Replicate_1.
Setting [21] is: sheet LOPAC_screen_w_protease, LOPAC1280 primary screen with protease, 5 µM compound, replicate 2, read-out: Replicate_2.
[22] abbreviates: sheet LOPAC_screen_w_protease, primary screen with protease, compound at 5 µM, mean of two replicates.
Where [23] appears, read: sheet LOPAC_screen_w_protease, primary screen with protease, compound at 5 µM, replicate 1.
[24] abbreviates: sheet LOPAC_screen_w_protease, primary screen with protease, compound at 5 µM, replicate 2.

The values below come from PMC7587356, “High-Throughput Screening for Inhibitors of the SARS-CoV-2 Protease Using a FRET-Biosensor” (Molecules, 2020).

Where a name gives a salt, the structure may show the parent alone. Read-outs that look alike come from different tables or passages of the source.

Regarding `Cl.Cl.Cn1cnc(CCN)c1` [1-Methylhistamine dihydrochloride], the mean (sheet LOPAC_screen_w_protease, LOPAC1280 primary screen with protease, 5 µM compound, mean of the two replicates) was determined as 4.368. Also, the Replicate_1 (sheet LOPAC_screen_w_protease, LOPAC1280 primary screen with protease, 5 µM compound, replicate 1) came out at 3.059. Under “sheet LOPAC_screen_w_protease, LOPAC1280 primary screen with protease, 5 µM compound, replicate 2”, this compound had a Replicate_2 of 5.677.
Regarding `NCCc1c[nH]c2ccc(O)cc12` [Serotonin hydrochloride], the inhibition at 5 µM reads like this: under setting [1], 2.37%; under setting [2], 1.09%. The “mean (LOPAC_screen_w_protease)” value under setting [3] is 1.729.
In the case of `CC(C)[C@H](CO)Nc1nc(Nc2cccc(Cl)c2)c2ncn(C(C)C)c2n1` [Purvalanol A], the inhibition at 5 µM by setting is: (sheet LOPAC_screen_w_protease, primary screen with protease, mean of two replicates, read-out: mean) 2.33%; (sheet LOPAC_screen_w_protease, primary screen with protease, replicate 1, read-out: Replicate_1) 2.6%; (sheet LOPAC_screen_w_protease, primary screen with protease, replicate 2, read-out: Replicate_2) 2.06%.
Regarding `O=C(O)c1cc(=O)c2c(Cl)cc(Cl)cc2[nH]1` [5,7-Dichlorokynurenic acid], under setting [4], the mean was determined as 3.519. The compound also came in with a Replicate_1 under setting [5] of 3.053. This compound yielded a Replicate_2 under setting [6] of 3.985.
As to `CN1CCC(=C2c3ccccc3C=Cc3ccccc32)CC1` [Cyproheptadine hydrochloride], the inhibition at 5 µM under setting [1] stood at 4.15% and the inhibition at 5 µM under setting [2] stood at 0.0977%. Under setting [7], the “mean (LOPAC_screen_w_protease)” value came to 2.126.
With `CC[N+](CC)(CC)CC` [Tetraethylammonium chloride], the inhibition at 5 µM (read-out: Replicate_1) came out at 2.25%, the inhibition at 5 µM (read-out: Replicate_2) is -1.51% and the inhibition at 5 µM (read-out: mean) was determined as 0.374%.
For the compound `CC(=O)[C@H]1CC[C@H]2[C@@H]3CC[C@H]4C[C@H](O)CC[C@]4(C)[C@H]3C(=O)C[C@]12C` [5alpha-Pregnan-3alpha-ol-11,20-dione], under setting [8], the mean amounted to 2.341. The Replicate_1 under setting [9] is 0.8983. The compound also showed a Replicate_2 under setting [10] of 3.784.
The compound `Nn1nnc2ccccc21` [1-Aminobenzotriazole] displayed a mean under setting [11] of 1.253. For the same compound, the Replicate_1 under setting [12] was 1.647. Besides, the Replicate_2 under setting [13] stood at 0.8595.
`CC(C)C[C@H]1C(=O)N2CCC[C@H]2[C@]2(O)O[C@](NC(=O)[C@@H]3C=C4c5cccc6[nH]c(Br)c(c56)C[C@H]4N(C)C3)(C(C)C)C(=O)N12.CS(=O)(=O)O` [(+)-Bromocriptine methanesulfonate]: the “mean (LOPAC_screen_w_protease)” value under setting [7] worked out at 1.984. The “Replicate_1 (LOPAC_screen_w_protease)” value under setting [14] was determined as 2.405. Moreover, the “Replicate_2 (LOPAC_screen_w_protease)” value under setting [15] was 1.562.
Take `CC(C)NC(C)Cc1ccc(I)cc1` (centres unmarked) [Iofetamine hydrochloride]: the inhibition at 5 µM is, setting by setting: (read-out: Replicate_1) 3.54%; (read-out: Replicate_2) 3.79%; (read-out: mean) 3.67%.
As to `CC(C)CC(N)CSSCC(N)CC(C)C.Cl.Cl` [L-Leucinethiol, oxidized dihydrochloride], the “mean (LOPAC screen with protease)” value under setting [16] was 45.1144. Further, the “Replicate_1 (LOPAC screen with protease)” value under setting [17] worked out at 48.0888. The “Replicate_2 (LOPAC screen with protease)” value under setting [18] was determined as 42.1401.
In the case of `CCN(CC)CCOC(=O)c1ccc(N)cc1` [Procaine hydrochloride], the inhibition at 5 µM amounted to 1.06% under setting [1] and 1.81% under setting [2]. Besides, the “mean (LOPAC_screen_w_protease)” value under setting [3] was 1.433.
As to `Clc1cccc(Cl)c1N=C1NCCN1` [Clonidine hydrochloride], the “mean (LOPAC_screen_w_protease)” value was found to be 1.822. Moreover, the inhibition at 5 µM (read-out: Replicate_1 (LOPAC_screen_w_protease)) came out at 1.42%. The inhibition at 5 µM (read-out: Replicate_2 (LOPAC_screen_w_protease)) worked out at 2.22%.
For the compound `CN(C)S(=O)(=O)c1ccc2c(c1)/C(=C/c1cc3c([nH]1)CCCC3)C(=O)N2` [SU 6656], the inhibition at 5 µM runs as follows: under setting [19], 4.85%; under setting [20], 3.58%; under setting [21], 6.11%.
Turning to 17alpha-hydroxyprogesterone, the mean under setting [8] came to 2.147. Under setting [9], this compound gave a Replicate_1 of 1.557.
For the compound `Nc1ncnc2c1ncn2[C@@H]1O[C@H](COP(=O)(O)CP(=O)(O)OP(=O)([O-])[O-])[C@H](O)C1O.[Li+].[Li+]` (some centres unmarked), the mean under setting [22] is 2.729. For the same compound, the Replicate_1 under setting [23] came out at 1.677. Also, the Replicate_2 under setting [24] is 3.782.
Consider `CC(=O)N[C@@H](CS)C(=O)O` [N-Acetyl-L-Cysteine], for which the inhibition at 5 µM runs as follows: (read-out: Replicate_1) 0.481%; (read-out: Replicate_2) 0.723%; (read-out: mean) 0.602%.
Turning to `S=C([S-])OC1CC2CC1C1CCCC21.[K+]` [D-609 potassium], the mean (sheet LOPAC_screen_w_protease, LOPAC1280 primary screen at 5 µM, with protease, mean of two replicates) is reported as -1.918. This compound also showed a Replicate_1 (sheet LOPAC_screen_w_protease, LOPAC1280 primary screen at 5 µM, with protease, replicate 1) of -2.8235. For the same compound, the Replicate_2 (sheet LOPAC_screen_w_protease, LOPAC1280 primary screen at 5 µM, with protease, replicate 2) is -1.0122.
The compound `Cn1ccc2cc3c(cc21)CCN3C(=O)Nc1cccnc1` [SB 206553 hydrochloride] displayed a mean under setting [22] of 2.821. Under setting [23], this compound came in with a Replicate_1 of 3.909. The same compound returned a Replicate_2 under setting [24] of 1.733.
Regarding `Nc1ncnc2c1ncn2[C@@H]1O[C@H](C(=O)NC2CC2)[C@@H](O)[C@H]1O` [5'-(N-Cyclopropyl)carboxamidoadenosine], the “mean (LOPAC_screen_w_protease)” value under setting [3] came to 1.624. In addition, the “Replicate_1 (LOPAC_screen_w_protease)” value under setting [14] stood at 1.713. The “Replicate_2 (LOPAC_screen_w_protease)” value under setting [15] is given as 1.536.
With `COC(=O)C1=C(C)NC(C)=C(C(=O)OCCN(C)Cc2ccccc2)C1c1cccc([N+](=O)[O-])c1` (centres unmarked) [Nicardipine hydrochloride], the inhibition at 5 µM (sheet LOPAC_screen_w_protease, primary screen with protease, compound at 5 µM, mean of two replicates, read-out: mean) was determined as 2.73%; the inhibition at 5 µM (sheet LOPAC_screen_w_protease, primary screen with protease, compound at 5 µM, replicate 1, read-out: Replicate_1) amounted to 2.03%; the inhibition at 5 µM (sheet LOPAC_screen_w_protease, primary screen with protease, compound at 5 µM, replicate 2, read-out: Replicate_2) was found to be 3.42%.
In the case of `Br.C=CCN1CCc2c(cc(O)c(O)c2Br)[C@@H](c2ccccc2)C1` [R(+)-6-Bromo-APB hydrobromide], under setting [16], the “mean (LOPAC screen with protease)” value is on record as 28.8024. In addition, the “Replicate_1 (LOPAC screen with protease)” value under setting [17] is reported as 26.2193. Further, the “Replicate_2 (LOPAC screen with protease)” value under setting [18] amounted to 31.3855.
`Cn1ccnc1` [1-Methylimidazole]: the inhibition at 5 µM runs as follows: under setting [19], 4.84%; under setting [20], 4.68%; under setting [21], 4.99%.
For the compound `CN1[C@@H]2CC[C@H]1C[C@@H](OC(=O)c1cc(Cl)cc(Cl)c1)C2` [3-Tropanyl-3,5-dichlorobenzoate], the inhibition at 5 µM reads like this: under setting [1], 2.08%; under setting [2], 0.785%. Moreover, under setting [3], the “mean (LOPAC_screen_w_protease)” value came out at 1.4299.
As for `Nc1c2c(nc3ccccc13)CCCC2O.O=C(O)/C=C\C(=O)O` (centres unmarked) [Hydroxytacrine maleate], the mean under setting [8] came out at 2.348. Under setting [9], this compound displayed a Replicate_1 of 3.064. The compound further displayed a Replicate_2 under setting [10] of 1.632.
`CC(C)NCC(O)COc1cccc2[nH]ccc12` (centres unmarked) [Pindolol]: the inhibition at 5 µM by setting is: (sheet LOPAC_screen_w_protease, LOPAC1280 primary screen at 5 µM, with protease, mean of the two replicates, read-out: mean) 0.855%; (sheet LOPAC_screen_w_protease, LOPAC1280 primary screen at 5 µM, with protease, replicate 1, read-out: Replicate_1) 0.309%; (sheet LOPAC_screen_w_protease, LOPAC1280 primary screen at 5 µM, with protease, replicate 2, read-out: Replicate_2) 1.4%.
Consider `O=C1NC(=O)C(c2ccccc2)(c2ccccc2)N1` [Phenytoin sodium], for which the inhibition at 5 µM came to 1.2% under setting [1] and 2.6% under setting [2]. For the same compound, the “mean (LOPAC_screen_w_protease)” value under setting [7] was 1.899.
For `NC(N)=NOCC[C@H](N)C(=O)O.O=S(=O)(O)O` [L-Canavanine sulfate], the mean under setting [11] is 1.293. Moreover, the Replicate_1 under setting [12] was 1.623. Under setting [13], this compound gave a Replicate_2 of 0.9625.
For the compound `CCCc1c(OCCCOc2ccc(OCC(=O)O)cc2)ccc(C(C)=O)c1O` [L-165,041], the “mean (LOPAC screen with protease)” value under setting [16] is reported as 13.6599. The “Replicate_1 (LOPAC screen with protease)” value under setting [17] was 14.4944. Moreover, the “Replicate_2 (LOPAC screen with protease)” value under setting [18] is reported as 12.8255.
Consider `Cl.O=C(Cc1ccc(Cl)c(Cl)c1)N1CCCCC1CN1CCCC1` (centres unmarked) [BRL 52537 hydrochloride], for which the “mean (LOPAC_screen_w_protease)” value under setting [3] stood at 1.672. The “Replicate_1 (LOPAC_screen_w_protease)” value under setting [14] is on record as 2.192. Besides, under setting [15], the “Replicate_2 (LOPAC_screen_w_protease)” value turned out to be 1.152.
Turning to `Nc1nccc2c1ncn2[C@@H]1O[C@H](CO)[C@@H](O)[C@H]1O` [3-deazaadenosine], under setting [4], the mean is reported as 3.161. The compound further registered a Replicate_1 under setting [5] of 4.639. Also, the Replicate_2 under setting [6] is 1.683.
